Values belong to the compound of their own block, whether it stands above or below them.
Legend:
LNCaP [1] = assay: Cell cycle arrest in human LNCap cells assessed as accumulation at G2/M phase relative to control at 5 uM; assay type: functional
LNCaP [2] = assay: Cell cycle arrest in human LNCap cells assessed as accumulation at S phase relative to control at 5 uM; assay type: functional
LNCaP [3] = assay: Cell cycle arrest in human LNCap cells assessed as accumulation at G1 phase relative to control at 5 uM; assay type: functional
LNCaP [4] = assay: Antitumor activity against human LNCap cells xenografted SCID mouse model at 10 to 20 mg/kg/day, sc relative to control; assay type: functional; details: route subcutaneous
LNCaP [5] = assay: Antiproliferative activity against human LNCap by MTT assay; assay type: functional, cell-based
LNCaP [6] = assay: Antitumor activity against human LNCap cells xenografted SCID mouse model at 20 to 10 mg/kg/day, sc relative to control; assay type: functional; details: route subcutaneous
LNCaP [7] = assay: Cell cycle arrest in human LNCap cells assessed as accumulation at S phase relative to control at 1 uM; assay type: functional
LNCaP [8] = assay: Cell cycle arrest in human LNCap cells assessed as accumulation at G1 phase relative to control at 1 uM; assay type: functional
LNCaP [9] = assay: Cell cycle arrest in human LNCap cells assessed as accumulation at G2/M phase relative to control at 1 uM; assay type: functional

Structure (SMILES): CC1=C(/C=C/C(C)=C/C=C/C(C)=C/C(=O)Nc2ccc(O)cc2)C(C)(C)CCC1n1ccnc1 (stereo not given)
Activity (LNCaP [1]): 0%
Activity (LNCaP [2]): 10.86%
Activity (LNCaP [3]): 89.14%
Activity (LNCaP [4]): 81.6%

IC50 (LNCaP [5]): 0.36 µM
Structure (SMILES): Nc1ccccc1NC(=O)c1ccc(CNC(=O)OCc2cccnc2)cc1 [ENTINOSTAT]

IC50 (LNCaP [5]): 7.4 µM
Structure (SMILES): CC(=O)Nc1ccc(C(=O)Nc2ccccc2N)cc1 [TACEDINALINE]

Structure (SMILES): O=C(CCCCCCC(=O)Nc1ccccc1)NO [VORINOSTAT]
Activity (LNCaP [6]): 97.1%
Activity (LNCaP [7]): 18.1%
Activity (LNCaP [8]): 81.9%
Activity (LNCaP [9]): 0%

— ChEMBL document CHEMBL1143917, “Improved synthesis of histone deacetylase inhibitors (HDIs) (MS-275 and CI-994) and inhibitory effects of HDIs alone or in combination with RAMBAs or retinoids on growth of human LNCaP prostate cancer cells and tumor xenografts” (Bioorg Med Chem, 2008)
